The record followed here is US7534818B1 (priority 2003, dated 2009).

One data set relates to rat bladder. The conditions noted are these: MSC 0.75 mg/rat/d orally; for bladder histology (hemorrhage): 24 hrs after cyclophosphamide 150 mg/kg×1 i.v., first dose 14 days before, hematoxylin-eosin sections, FIG. 2. The source says:
Bladders were removed and fixed in formalin. Paraffin embedded sections were obtained and stained by hematoxylin-eosin staining by standard methods.

The test system of the next data set is normal rats. Briefly: Identification of non-toxic doses of MSC (survival, weight loss) in normal rats. It is filed as in vivo, adult Fisher rats. The conditions noted are these: for animals surviving treatment: 21 days. The procedure: This example describes the identification of non-toxic doses for the use of selenium. To illustrate this embodiment, different groups of adult Fisher rats were administered various doses of selenium for 21 days and survival of rats was monitored. Each group had 6 rats and each exempt group was repeated 3-4 times. […] Thus, for evaluation of the protective effect of MSC against chemotherapy induced toxicity, the dose and schedule of MSC used was 0.75 mg/rat/d up to 21 days orally.
Bladders were removed and fixed in formalin.

The subject of data set [1] is human squamous cell carcinoma of head and neck tumor xenografts (A253). Briefly: Anti-tumor activity in A253 xenografts. The class given is in vivo. The settings on record: A253 xenografts in nude mice; cyclophosphamide 100 mg/kg×1, i.v., alone or in combination with MSC.
Another data set concerns rats. The conditions noted are these: days 30 and 45 after cyclophosphamide 100 mg/kg i.v.×1; MSC 0.75 mg/rat/d×21, first dose 14 days before; FIG. 4.
[2] abbreviates: up to 0.75 mg/rat/d×21 MSC, adult Fisher rats.

Consider `C[Se]C[C@H](N)C(=O)O` [MSC, 5-methylselenocysteine], for which, in the data set with rat bladder, the “bladder histology (hemorrhage)” value was “no change”. Also, the weight loss in the data set on normal rats (0.75 mg/rat/d MSC orally up to 21 days, Fisher rats 120-180 g, stated as less than 10% of total body weight) stood at 7.4±2.4. This compound returned an animals surviving treatment in the data set on normal rats (1 mg MSC dose, adult Fisher rats) of 75%. Besides, the animals surviving treatment in the data set with normal rats (1.25 mg MSC dose, adult Fisher rats) was 0%. In the data set on normal rats (setting [2]), the lethality result is on record as “no lethality”, the toxicity entry was “not toxic” and the weight loss entry was “less than 5%”.

`O=P1(N(CCCl)CCCl)NCCCO1` (centres unmarked) [cyclophosphamide]: the bladder mucosal edema result in the data set with rat bladder (4 hrs after cyclophosphamide 150 mg/kg×1 i.v., FIG. 3) was “acute mucosal edema”. In addition, the “bladder histology (hemorrhage)” value with rat bladder was “severe hemorrhagic cystitis”. Also, the Tumor growth inhibition in data set [1] was 35%. Also, the “regrowth of hair (alopecia)” value in the data set with rats is “only partial recovery”.
